The source of these data is patent US20250171426A1, “PYRIMIDINEDIONE-BASED COMPOUNDS AS AXL, C-MET, AND MER INHIBITORS AND METHODS OF USE THEREOF” (CMG Pharmaceutical Co., Ltd., priority 2022, published 2025).

Holding throughout (format): biochemical
What all share (conditions): 10 μM ATP, 60 min, ADP-GLO luminescence

Test [1] concerns the target c-MET (Homo sapiens, UniProt P08581). As to the kind of experiment: Enzymatic assay (ADP-Glo kinase reaction), c-MET. The protocol: (§1) All the kinase reactions were performed in 5 μL using tyrosine kinase buffer with 0.2 μg/μL poly (Glu4, Tyr1) substrate, 10 μM ATP, serial dilution of the inhibitor, and incubated at room temperature for 60 min. After the indicated incubation times, 5 μL ADP-GLO™ reagent (Promega, Madison, WI) was added to the reactions and the plate was incubated at room temperature for 40 min. […] All 384-well assay plates were read using a GLOMAX™ Discover Microplate Luminometer from Promega (Madison, WI). To plot, analyze the data and calculate all kinase reaction biochemical values, both Microsoft Excel and Prism from GraphPad 7 Software (La Jolla, CA) were used.
A general note: In ADP-Glo the light output rises with the ADP produced.

Test [2] has as its target T1, MER (Homo sapiens, UniProt Q12866).
T1 sequence (Q12866 21-999): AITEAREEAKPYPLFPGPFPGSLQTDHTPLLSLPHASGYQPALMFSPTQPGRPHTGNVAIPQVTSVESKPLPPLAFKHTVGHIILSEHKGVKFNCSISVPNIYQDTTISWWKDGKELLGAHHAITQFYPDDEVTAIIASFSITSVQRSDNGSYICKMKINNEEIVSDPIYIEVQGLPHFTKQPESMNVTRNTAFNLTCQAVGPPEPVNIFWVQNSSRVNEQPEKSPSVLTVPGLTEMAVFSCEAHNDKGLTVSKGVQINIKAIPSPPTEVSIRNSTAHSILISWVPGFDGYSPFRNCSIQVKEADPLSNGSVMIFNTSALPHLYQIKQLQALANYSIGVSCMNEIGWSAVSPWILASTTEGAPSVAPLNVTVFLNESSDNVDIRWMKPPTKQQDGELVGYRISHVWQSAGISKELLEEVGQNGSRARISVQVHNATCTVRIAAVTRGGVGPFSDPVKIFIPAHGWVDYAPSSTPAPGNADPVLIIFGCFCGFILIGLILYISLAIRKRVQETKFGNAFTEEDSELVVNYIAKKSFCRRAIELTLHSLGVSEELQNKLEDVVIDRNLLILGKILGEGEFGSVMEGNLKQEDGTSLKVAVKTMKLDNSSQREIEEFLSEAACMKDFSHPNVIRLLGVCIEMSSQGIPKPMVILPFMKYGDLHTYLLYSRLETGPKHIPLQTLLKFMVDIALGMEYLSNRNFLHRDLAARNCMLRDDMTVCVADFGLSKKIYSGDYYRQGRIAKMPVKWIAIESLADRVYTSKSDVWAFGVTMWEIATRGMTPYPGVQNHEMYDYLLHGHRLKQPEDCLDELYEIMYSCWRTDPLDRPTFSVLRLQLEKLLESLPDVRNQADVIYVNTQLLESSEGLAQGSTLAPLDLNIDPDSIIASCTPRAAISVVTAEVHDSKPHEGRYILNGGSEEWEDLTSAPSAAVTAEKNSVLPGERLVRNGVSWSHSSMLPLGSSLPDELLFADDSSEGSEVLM
The test can be described thus: Enzymatic assay (ADP-Glo kinase reaction), MER. On the procedure:
(§2) All the kinase reactions were performed in 5 μL using tyrosine kinase buffer with 0.2 μg/μL poly (Glu4, Tyr1) substrate, 10 μM ATP, serial dilution of the inhibitor, and incubated at room temperature for 60 min. After the indicated incubation times, 5 μL ADP-GLO™ reagent (Promega, Madison, WI) was added to the reactions and the plate was incubated at room temperature for 40 min. Then, 10 μL of kinase detection reagent was added and after an incubation time of 40 min, luminescence was recorded and IC50 values were determined (Table 1). All 384-well assay plates were read using a GLOMAX™ Discover Microplate Luminometer from Promega (Madison, WI). To plot, analyze the data and calculate all kinase reaction biochemical values, both Microsoft Excel and Prism from GraphPad 7 Software (La Jolla, CA) were used.
as §2, with “3).” for “1).”

In test [3] the target is T2, AXL (Homo sapiens, UniProt P30530).
T2 sequence (P30530 26-894): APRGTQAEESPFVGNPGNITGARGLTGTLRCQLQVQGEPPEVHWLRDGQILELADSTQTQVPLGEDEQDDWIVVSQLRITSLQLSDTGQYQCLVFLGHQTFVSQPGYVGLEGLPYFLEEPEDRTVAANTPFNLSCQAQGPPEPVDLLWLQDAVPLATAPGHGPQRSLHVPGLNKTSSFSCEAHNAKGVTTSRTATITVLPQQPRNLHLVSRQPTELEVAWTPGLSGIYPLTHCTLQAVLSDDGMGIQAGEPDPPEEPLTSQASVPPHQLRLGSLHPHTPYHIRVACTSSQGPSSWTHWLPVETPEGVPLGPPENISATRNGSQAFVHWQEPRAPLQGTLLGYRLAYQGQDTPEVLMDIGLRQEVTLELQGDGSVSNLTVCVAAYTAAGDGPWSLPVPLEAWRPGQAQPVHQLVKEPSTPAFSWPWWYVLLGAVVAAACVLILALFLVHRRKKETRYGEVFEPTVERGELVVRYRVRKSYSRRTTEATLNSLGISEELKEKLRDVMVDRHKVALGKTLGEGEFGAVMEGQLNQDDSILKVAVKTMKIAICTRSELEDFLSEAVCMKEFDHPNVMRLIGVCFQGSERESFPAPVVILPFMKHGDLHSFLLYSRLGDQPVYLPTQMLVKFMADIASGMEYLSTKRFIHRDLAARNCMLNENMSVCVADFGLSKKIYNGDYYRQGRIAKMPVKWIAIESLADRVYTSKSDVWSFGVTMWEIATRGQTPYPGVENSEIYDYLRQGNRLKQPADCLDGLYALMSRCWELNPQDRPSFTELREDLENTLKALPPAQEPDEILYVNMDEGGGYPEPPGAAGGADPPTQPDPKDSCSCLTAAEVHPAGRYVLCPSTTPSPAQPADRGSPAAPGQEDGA
As to the kind of experiment: Enzymatic assay (ADP-Glo kinase reaction), AXL. The protocol:
as §1

SMILES strings stand for the structures.

Chain of c-MET (P08581 25-1390): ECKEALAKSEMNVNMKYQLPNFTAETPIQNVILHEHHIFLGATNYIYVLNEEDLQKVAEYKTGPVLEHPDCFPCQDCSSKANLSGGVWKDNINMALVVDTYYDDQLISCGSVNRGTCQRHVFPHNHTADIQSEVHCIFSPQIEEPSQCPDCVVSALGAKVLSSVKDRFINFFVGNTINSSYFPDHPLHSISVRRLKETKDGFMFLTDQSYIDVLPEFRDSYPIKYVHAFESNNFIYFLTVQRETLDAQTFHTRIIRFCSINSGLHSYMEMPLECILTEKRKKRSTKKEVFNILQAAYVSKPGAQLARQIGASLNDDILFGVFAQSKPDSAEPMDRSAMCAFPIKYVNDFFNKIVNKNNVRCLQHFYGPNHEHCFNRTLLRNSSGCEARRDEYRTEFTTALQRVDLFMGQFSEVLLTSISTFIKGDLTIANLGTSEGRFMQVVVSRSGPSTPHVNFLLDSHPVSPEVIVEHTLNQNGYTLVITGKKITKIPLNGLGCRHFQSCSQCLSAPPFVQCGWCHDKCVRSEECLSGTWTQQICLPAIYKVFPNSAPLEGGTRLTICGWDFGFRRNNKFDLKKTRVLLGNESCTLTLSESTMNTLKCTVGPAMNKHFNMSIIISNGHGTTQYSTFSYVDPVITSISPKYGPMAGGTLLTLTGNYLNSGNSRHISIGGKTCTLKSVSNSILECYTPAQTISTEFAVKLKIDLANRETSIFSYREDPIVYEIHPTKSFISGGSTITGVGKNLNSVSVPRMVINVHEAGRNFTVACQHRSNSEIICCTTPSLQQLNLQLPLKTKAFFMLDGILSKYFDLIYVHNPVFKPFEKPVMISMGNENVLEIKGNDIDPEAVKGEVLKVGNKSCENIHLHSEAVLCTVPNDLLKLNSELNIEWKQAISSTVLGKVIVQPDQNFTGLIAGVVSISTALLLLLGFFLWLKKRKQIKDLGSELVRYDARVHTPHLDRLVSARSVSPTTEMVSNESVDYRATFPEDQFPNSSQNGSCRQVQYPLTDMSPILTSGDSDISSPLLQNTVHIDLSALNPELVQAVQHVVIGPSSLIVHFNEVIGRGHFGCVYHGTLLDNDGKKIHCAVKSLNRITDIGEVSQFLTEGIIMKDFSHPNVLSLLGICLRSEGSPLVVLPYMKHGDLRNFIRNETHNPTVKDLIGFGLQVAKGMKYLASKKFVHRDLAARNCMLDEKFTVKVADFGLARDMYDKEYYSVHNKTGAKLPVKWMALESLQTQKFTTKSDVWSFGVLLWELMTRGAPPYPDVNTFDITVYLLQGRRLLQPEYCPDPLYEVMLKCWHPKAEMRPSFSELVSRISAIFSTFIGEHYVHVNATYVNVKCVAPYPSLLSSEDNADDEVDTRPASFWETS

For `COCCN1CCN(C(C)(C)C#Cc2c(Oc3ccc(NC(=O)c4cn(C(C)C)c(=O)n(-c5ccc(F)cc5)c4=O)cc3F)ccnc2N)CC1` [Example 20, N-(4-(2-amino-3-(3-(4-(2-methoxyethyl)piperazin-1-yl)-3-methylbut-1-ynyl)pyridin-4-yloxy)-3-fluorophenyl)-3-(4-fluorophenyl)-1-isopropyl-2,4-dioxo-1,2,3,4-tetrahydropyrimidine-5-carboxamide], the IC50 in test [1], in test [2] and in test [3] was less than 10 nM in each case.

Consider `CC(C)n1cc(C(=O)Nc2ccc(Oc3ccnc(N)c3C#CCC3CCNCC3)c(F)c2)c(=O)n(-c2ccc(F)cc2)c1=O` [Example 27, N-(4-(2-amino-3-(3-(piperidin-4-yl)prop-1-ynyl)pyridin-4-yloxy)-3-fluorophenyl)-3-(4-fluorophenyl)-1-isopropyl-2,4-dioxo-1,2,3,4-tetrahydropyrimidine-5-carboxamide], for which the IC50 in test [1], in test [2] and in test [3] was less than 10 nM in each case.

Take `CC(C)n1cc(C(=O)Nc2ccc(Oc3ccnc(N)c3C#CC(C)(C)N3CCOCC3)c(F)c2)c(=O)n(-c2ccc(F)cc2)c1=O` [Example 25, N-(4-(2-amino-3-(3-methyl-3-morpholinobut-1-ynyl)pyridin-4-yloxy)-3-fluorophenyl)-3-(4-fluorophenyl)-1-isopropyl-2,4-dioxo-1,2,3,4-tetrahydropyrimidine-5-carboxamide]: the half-inhibitory concentration (IC50) in test [1], in test [2] and in test [3] was less than 10 nM in each case.

On to `CC(C)n1cc(C(=O)Nc2ccc(Oc3ccnc(N)c3-c3cnn(C)c3)c(F)c2)c(=O)n(-c2ccc(F)cc2)c1=O` [Example 7], for which the IC50 (usually the concentration that inhibits the measured activity by half) was less than 10 nM in test [1], less than 100 nM in test [2] and less than 10 nM in test [3].

With `Cc1nc(Cn2cc(C(=O)Nc3ccc(Oc4ccnc(N)c4C#CCN4CCOCC4)c(F)c3)c(=O)n(-c3ccc(F)cc3)c2=O)cs1` [Example 40, N-(4-((2-amino-3-(3-morpholinoprop-1-yn-1-yl)pyridin-4-yl)oxy)-3-fluorophenyl)-3-(4-fluorophenyl)-1-((2-methylthiazol-4-yl)methyl)-2,4-dioxo-1,2,3,4-tetrahydropyrimidine-5-carboxamide], the IC50 in test [1] is less than 1000 nM; in test [2], less than 100 nM; in test [3] it was less than 100 nM.

On to `CC(C)n1cc(C(=O)Nc2ccc(Oc3ccnc(N)c3-c3ccccc3)c(F)c2)c(=O)n(-c2ccc(F)cc2)c1=O` [Example 22, N-(4-(2-amino-3-phenylpyridin-4-yloxy)-3-fluorophenyl)-3-(4-fluorophenyl)-1-isopropyl-2,4-dioxo-1,2,3,4-tetrahydropyrimidine-5-carboxamide], for which the IC50 in test [1], in test [2] and in test [3] was less than 100 nM in each case.

As to `CC(C)n1cc(C(=O)Nc2ccc(Oc3ccnc(N)c3C#CC3CCNCC3)c(F)c2)c(=O)n(-c2ccc(F)cc2)c1=O` [Example 15, N-(4-(2-amino-3-(piperidin-4-ylethynyl)pyridin-4-yloxy)-3-fluorophenyl)-3-(4-fluorophenyl)-1-isopropyl-2,4-dioxo-1,2,3,4-tetrahydropyrimidine-5-carboxamide], the IC50 in test [1] was less than 100 nM; in test [2], less than 10 nM; in test [3], less than 10 nM.

Consider `CN1CCC(CC#Cc2c(Oc3ccc(NC(=O)c4cn(CC(=O)N(C)C)c(=O)n(-c5ccc(F)cc5)c4=O)cc3F)ccnc2N)CC1` [Example 37, N-(4-((2-amino-3-(3-(1-methylpiperidin-4-yl)prop-1-yn-1-yl)pyridin-4-yl)oxy)-3-fluorophenyl)-1-(2-(dimethylamino)-2-oxoethyl)-3-(4-fluorophenyl)-2,4-dioxo-1,2,3,4-tetrahydropyrimidine-5-carboxamide], for which the IC50 was less than 10000 nM in test [1], less than 10 nM in test [2] and less than 100 nM in test [3].

Consider `CC(C)n1cc(C(=O)Nc2ccc(Oc3ccnc(N)c3-c3ccc(Oc4ccccc4)cc3)c(F)c2)c(=O)n(-c2ccc(F)cc2)c1=O` [Example 10], for which the IC50 is less than 10000 nM in test [1], less than 10 nM in test [2] and less than 100 nM in test [3].

As for `Cc1noc(C)c1-c1c(Oc2ccc(NC(=O)c3cn(C(C)C)c(=O)n(-c4ccc(F)cc4)c3=O)cc2F)ccnc1N` [Example 11], the IC50 in test [1] was less than 10000 nM; in test [2], less than 10 nM; in test [3] it was less than 100 nM.

With `CC(C)(C#Cc1c(Oc2ccc(NC(=O)c3cn(C4CCOCC4)c(=O)n(-c4ccc(F)cc4)c3=O)cc2F)ccnc1N)N1CCNCC1` [Example 58, N-(4-(2-amino-3-(3-methyl-3-(piperazin-1-yl)but-1-ynyl)pyridin-4-yloxy)-3-fluorophenyl)-3-(4-fluorophenyl)-2,4-dioxo-1-(tetrahydro-2H-pyran-4-yl)-1,2,3,4-tetrahydropyrimidine-5-carboxamide], the IC50 in test [1] is less than 100 nM; in test [2], less than 10 nM; in test [3] it was less than 100 nM.

For the molecule `CC(C)n1cc(C(=O)Nc2ccc(Oc3ccnc(N)c3Cl)c(F)c2)c(=O)n(-c2ccc(F)cc2)c1=O` [Example 6, N-(4-(2-amino-3-chloropyridin-4-yloxy)-3-fluorophenyl)-3-(4-fluorophenyl)-1-isopropyl-2,4-dioxo-1,2,3,4-tetrahydropyrimidine-5-carboxamide], in test [2], the IC50 was less than 100 nM.

In the case of `CC(C)n1cc(C(=O)Nc2ccc(Oc3ccnc(N)c3C#CCN3CCOCC3)c(F)c2)c(=O)n(-c2ccc(F)cc2)c1=O` [Example 24, N-(4-(2-amino-3-(3-morpholinoprop-1-ynyl)pyridin-4-yloxy)-3-fluorophenyl)-3-(4-fluorophenyl)-1-isopropyl-2,4-dioxo-1,2,3,4-tetrahydropyrimidine-5-carboxamide], the IC50 in test [1] and in test [3] was less than 10 nM each time.
